Source: US5733924A, “DC 107 derivatives and treatment methods” (Kyowa Hakko Kogyo Co., Ltd., priority 1995, dated 1998)
In brackets after ≈: the same amount, converted by molar mass. Like-named read-outs stand apart in the source and are kept apart here.

Key:
[1] = test system: Enterococcus faecium ATCC 10541; assay: Antibacterial activity, agar dilution method (MIC); type: cell-based
Source text: (§1) The antibacterial activity as determined by the agar dilution method using a medium prepared by dissolving 3 g of Bacto-Tryptone (a product of Difco Laboratories), 3 g of a meat extract, 1 g of an yeast extract, 1 g of glucose and 16 g of agar in one liter of water (pH 7).
EF: Enterococcus faecium ATCC 10541

P388 Leukemia = assay: Antitumor activity against P388 leukemia in mice (increased life span); type: in vivo, CDF1 mice; details: Mus musculus, P388, ip, 720 h
Description: Ascites were collected from the abdominal cavity of P388 ascites tumor-bearing cancer mice (DBA/2) on the 7th day after transplantation. A number of P388 cells in the ascites was counted, and a tumor cell floating liquid of 5×10^6 cells/ml was prepared using a physiological saline solution. Then, 0.2 ml of the solution containing 1×10^6 cells was transplanted into the abdominal cavity of CDF1 mice having a body weight of from 20 to 25 g.
The effect of the test compound was determined in terms of the ratio of average survival days of the group administered with the test compound to average survival days of the control group (non-medicated group) (i.e., an increased life span, ILS%).

Escherichia coli ATCC 26 = assay: Antibacterial activity, agar dilution method (MIC); type: cell-based
Source text: as §1
EC: Escherichia coli ATCC 26

[2] = test system: Klebsiella pneumoniae ATCC 10031; assay: Antibacterial activity, agar dilution method (MIC); type: cell-based
Source text: as §1
KP: Klebsiella pneumoniae ATCC 10031

[3] = test system: Staphylococcus aureus ATCC 6538P; assay: Antibacterial activity, agar dilution method (MIC); type: cell-based; details: ATCC6538P
Source text: as §1
SA: Staphylococcus aureus ATCC 6538P

[4] = test system: Bacillus subtilis No. 10707; assay: Antibacterial activity, agar dilution method (MIC); type: cell-based
Source text: as §1
BS: Bacillus subtilis No. 10707

[5] = Japanese Published Unexamined Patent Application No. 112988/89; cited from earlier work
various bacteria = details: Japanese Published Unexamined Patent Application No. 112988/89; cited from earlier work
[6] = ATCC10541, EF: Enterococcus faecium ATCC 10541, pH 7, read-out: MIC (minimum growth inhibitory concentration)
[7] = 4.0 mg/kg, single i.p. 24 hours after transplantation, CDF1 mice, 30 days observation, read-out: ILS (increased life span)
[8] = ATCC26, EC: Escherichia coli ATCC 26, pH 7, read-out: MIC (minimum growth inhibitory concentration)
[9] = ATCC10031, KP: Klebsiella pneumoniae ATCC 10031, agar dilution, pH 7, read-out: MIC (minimum growth inhibitory concentration)
[10] = SA: Staphylococcus aureus ATCC 6538P, agar dilution, pH 7, read-out: MIC (minimum growth inhibitory concentration)
[11] = BS: Bacillus subtilis No. 10707, pH 7, read-out: MIC (minimum growth inhibitory concentration)
[12] = single i.p. 24 hours after transplantation, CDF1 mice, 30 days observation, read-out: ILS (increased life span)
[13] = 2.0 mg/kg, single i.p. 24 hours after transplantation, CDF1 mice, 30 days observation, read-out: ILS (increased life span)
[14] = Enterococcus faecium, ATCC10541, pH 7, read-out: MIC (minimum growth inhibitory concentration), EF: Enterococcus faecium ATCC 10541
[15] = read-out: ILS (increased life span)
[16] = Escherichia coli, ATCC26, pH 7, read-out: MIC (minimum growth inhibitory concentration), EC: Escherichia coli ATCC 26
[17] = Klebsiella pneumoniae, ATCC10031, pH 7, read-out: MIC (minimum growth inhibitory concentration)
[18] = Staphylococcus aureus, pH 7, read-out: MIC (minimum growth inhibitory concentration)
[19] = Bacillus subtilis, NO.10707, pH 7, read-out: MIC (minimum growth inhibitory concentration), BS: Bacillus subtilis No. 10707
[20] = single i.p. 24 hours after transplantation, CDF1 mice, 30 days observation

SMILES	MIC [1, 6] [µg/mL]	MIC (Escherichia coli ATCC 26; [8]) [µg/mL]	MIC [2, 9] [µg/mL]	MIC [3, 10] [µg/mL]	MIC [4, 11] [µg/mL]	also measured
C/C1=C\C(OC(=O)CNC(=O)CN(C)C(=O)OCc2ccccc2)C(=O)/C=C/C=C\c2csc(n2)C(C)NC(=O)CC2(CC1)[S+]([O-])SC(=O)C2(C)O (centres unmarked) [Compound 114]	0.037 (≈ 0.0479 µM)	11 (≈ 14.2 µM)	1.2 (≈ 1.55 µM)	0.037 (≈ 0.0479 µM)	0.037 (≈ 0.0479 µM)	ILS at 4 mg/kg (P388 Leukemia; [7]): 70%
CC1=CC(OC(=O)CNC(=O)CCNC(=O)OC(C)(C)C)C(=O)C=CC=Cc2csc(n2)C(C)N2C(=O)CC(C(C)(O)C(=O)SCc3oc(=O)oc3C)(CC1)[S+]2[O-] (centres unmarked) [Compound 170]	2.3 (≈ 2.7 µM)	75 (≈ 88.1 µM)	2.3 (≈ 2.7 µM)	2.3 (≈ 2.7 µM)	2.3 (≈ 2.7 µM)	ILS at 8 mg/kg (P388 Leukemia; [12]): 70%
COC1(OC2C=C(C)CCC3(C(C)(O)C(=O)SCc4oc(=O)oc4C)CC(=O)N(C(C)c4nc(cs4)C=CC=CC2=O)[S+]3[O-])CCOCC1 (centres unmarked) [Compound 122]	1.3 (≈ 1.76 µM)	42 (≈ 57 µM)	2.6 (≈ 3.53 µM)	0.65 (≈ 0.882 µM)	0.16 (≈ 0.217 µM)	ILS at 2 mg/kg (P388 Leukemia; [13]): 52%
CC1=CC(OC(=O)c2ccccn2)C(=O)C=CC=Cc2csc(n2)C(C)N2C(=O)CC(C(C)(O)C(=O)SCc3oc(=O)oc3C)(CC1)[S+]2[O-] (centres unmarked) [Compound 143]	–	–	–	–	–	MIC [1, 14]: 0.33 µg/mL (≈ 0.453 µM); ILS at 0.5 mg/kg (P388 Leukemia; [15]): 49%; MIC (Escherichia coli ATCC 26; [16]): 5.2 µg/mL (≈ 7.14 µM); MIC [2, 17]: 0.65 µg/mL (≈ 0.893 µM); MIC [3, 18]: 0.16 µg/mL (≈ 0.22 µM); MIC [4, 19]: 0.16 µg/mL (≈ 0.22 µM)
C/C1=C\C(OC(=O)CNC(=O)CCNC(=O)OCc2ccccc2)C(=O)/C=C/C=C\c2csc(n2)C(C)NC(=O)CC2(CC1)[S+]([O-])SC(=O)C2(C)O (centres unmarked) [Compound 111]	0.16 (≈ 0.207 µM)	2.6 (≈ 3.36 µM)	0.041 (≈ 0.053 µM)	0.33 (≈ 0.427 µM)	0.081 (≈ 0.105 µM)	ILS at 16 mg/kg (P388 Leukemia; [20]): 76%
C/C1=C\C(OC(=O)[C@H](C)NC(=O)OCc2ccccc2)C(=O)/C=C/C=C\c2csc(n2)C(C)NC(=O)CC2(CC1)[S+]([O-])SC(=O)C2(C)O (some centres unmarked) [Compound 103]	0.081 (≈ 0.113 µM)	10 (≈ 14 µM)	1.3 (≈ 1.82 µM)	42 (≈ 58.7 µM)	0.041 (≈ 0.0573 µM)	ILS at 4 mg/kg (P388 Leukemia; [7]): 52%
CCOCOC1/C=C(\C)CCC2(C(C)(O)C(=O)SCc3oc(=O)oc3C)CC(=O)N(C(C)c3nc(cs3)/C=C\C=C\C1=O)[S+]2[O-] (centres unmarked) [Compound 59]	1.3 (≈ 1.91 µM)	21 (≈ 30.8 µM)	5.2 (≈ 7.64 µM)	1.3 (≈ 1.91 µM)	0.65 (≈ 0.955 µM)	ILS at 2 mg/kg (P388 Leukemia; [13]): 47%
CCC(=O)OC1/C=C(\C)CCC2(CC(=O)NC(C)c3nc(cs3)/C=C\C=C\C1=O)[S+]([O-])SC(=O)C2(C)O (centres unmarked) [Compound 2]	0.081 (≈ 0.143 µM)	1.3 (≈ 2.29 µM)	0.65 (≈ 1.15 µM)	0.041 (≈ 0.0723 µM)	0.33 (≈ 0.582 µM)	ILS at 2 mg/kg (P388 Leukemia; [13]): 42%
C/C1=C\C(OC(=O)CNC=O)C(=O)/C=C/C=C\c2csc(n2)C(C)NC(=O)CC2(CC1)[S+]([O-])SC(=O)C2(C)O (centres unmarked) [Compound 99]	0.041 (≈ 0.0688 µM)	2.6 (≈ 4.36 µM)	0.041 (≈ 0.0688 µM)	0.041 (≈ 0.0688 µM)	0.041 (≈ 0.0688 µM)	ILS at 8 mg/kg (P388 Leukemia; [12]): 56%
C/C1=C\C(OC(=O)CCCNC(=O)OCc2ccccc2)C(=O)/C=C/C=C\c2csc(n2)C(C)NC(=O)CC2(CC1)[S+]([O-])SC(=O)C2(C)O (centres unmarked) [Compound 106]	0.16 (≈ 0.219 µM)	10 (≈ 13.7 µM)	1.3 (≈ 1.78 µM)	0.16 (≈ 0.219 µM)	0.041 (≈ 0.0562 µM)	ILS at 16 mg/kg (P388 Leukemia; [20]): 62%
C/C1=C\C(OC(=O)CNC(=O)CNC(=O)c2ccccc2)C(=O)/C=C/C=C\c2csc(n2)C(C)NC(=O)CC2(CC1)[S+]([O-])SC(=O)C2(C)O (centres unmarked) [Compound 109]	0.081 (≈ 0.111 µM)	3.2 (≈ 4.39 µM)	0.041 (≈ 0.0563 µM)	0.081 (≈ 0.111 µM)	0.35 (≈ 0.48 µM)	ILS at 8 mg/kg (P388 Leukemia; [12]): 78%
C/C1=C\C(OC(=O)CNC(=O)OCc2ccccc2)C(=O)/C=C/C=C\c2csc(n2)C(C)NC(=O)CC2(CC1)[S+]([O-])SC(=O)C2(C)O (centres unmarked) [Compound 97]	0.041 (≈ 0.0584 µM)	0.65 (≈ 0.926 µM)	0.81 (≈ 1.15 µM)	0.041 (≈ 0.0584 µM)	0.33 (≈ 0.47 µM)	ILS at 8 mg/kg (P388 Leukemia; [12]): 54%
C/C1=C\C(OC(=O)CN(C)C(=O)CCNC(=O)OCc2ccccc2)C(=O)/C=C/C=C\c2csc(n2)C(C)NC(=O)CC2(CC1)[S+]([O-])SC(=O)C2(C)O (centres unmarked) [Compound 117]	0.23 (≈ 0.292 µM)	0.46 (≈ 0.585 µM)	0.057 (≈ 0.0724 µM)	0.13 (≈ 0.165 µM)	0.13 (≈ 0.165 µM)	ILS at 16 mg/kg (P388 Leukemia; [20]): 73%
C/C1=C\C(O)C(=O)/C=C/C=C\c2csc(n2)C(C)NC(=O)CC2(CC1)[S+]([O-])SC(=O)C2(C)O (centres unmarked) [DC107]	–	–	–	–	–	antitumor activity [5]: also an antitumor activity; antibacterial activity (various bacteria): exhibits an antibacterial activity against various bacteria
C/C1=C\C(OC2CCCCO2)C(=O)/C=C/C=C\c2csc(n2)C(C)N2C(=O)CC(C(C)(O)C(=O)SCc3oc(=O)oc3C)(CC1)[S+]2[O-] (single isomer, unassigned) [Compound 63]	–	–	–	–	–	MIC [1, 14]: 0.65 µg/mL (≈ 0.92 µM); ILS at 2 mg/kg (P388 Leukemia; [15]): 48%; MIC (minimum growth inhibitory concentration) (Escherichia coli ATCC 26; EC: Escherichia coli ATCC 26, pH 7): 21 µg/mL (≈ 29.7 µM); MIC [2, 17]: 5.2 µg/mL (≈ 7.36 µM); MIC [3, 18]: 0.65 µg/mL (≈ 0.92 µM); MIC [4, 19]: 0.081 µg/mL (≈ 0.115 µM)
C/C1=C\C(OC(=O)CNC(=O)CNC(=O)OCc2ccccc2)C(=O)/C=C/C=C\c2csc(n2)C(C)NC(=O)CC2(CC1)[S+]([O-])SC(=O)C2(C)O (centres unmarked) [Compound 108]	0.081 (≈ 0.107 µM)	21 (≈ 27.7 µM)	0.33 (≈ 0.435 µM)	0.16 (≈ 0.211 µM)	0.041 (≈ 0.054 µM)	ILS at 4 mg/kg (P388 Leukemia; [7]): 72%
C/C1=C\C(OC(=O)C2CCCCC2)C(=O)/C=C/C=C\c2csc(n2)C(C)NC(=O)CC2(CC1)[S+]([O-])SC(=O)C2(C)O (centres unmarked) [Compound 6]	0.91 (≈ 1.47 µM)	3.7 (≈ 5.96 µM)	7.3 (≈ 11.8 µM)	0.91 (≈ 1.47 µM)	0.028 (≈ 0.0451 µM)	ILS at 4 mg/kg (P388 Leukemia; [15]): 49%
CC(=O)NCC(=O)OC1/C=C(\C)CCC2(CC(=O)NC(C)c3nc(cs3)/C=C\C=C\C1=O)[S+]([O-])SC(=O)C2(C)O (centres unmarked) [Compound 100]	–	–	–	–	–	MIC [1, 14]: 0.041 µg/mL (≈ 0.0672 µM); ILS at 4 mg/kg (P388 Leukemia; [15]): 66%; MIC (Escherichia coli ATCC 26; [16]): 2.6 µg/mL (≈ 4.26 µM); MIC [2, 17]: 0.041 µg/mL (≈ 0.0672 µM); MIC [3, 18]: 0.041 µg/mL (≈ 0.0672 µM); MIC [4, 19]: 0.081 µg/mL (≈ 0.133 µM)
